This experiment concerns human skin fibroblasts. The experiment can be described thus: Collagen synthesis by human skin fibroblasts (3H-proline incorporation into collagenous protein). It is filed as cell-based. The conditions noted are these: carnosine alone 60 mM, 48 h (FIG. 1 column 11). The procedure: After starving for up to 6 hours, cells were exposed to a mixture of BMF and carnosine or the appropriate controls for 48 hours. Tritiated proline (L-[5-^3H] proline) was included in the culture medium and at the end of the experiments, the amount of ^3H proline incorporated into collagenous protein was determined as an index of collagen synthesis. A subset of cultures were treated with […] for the final 6-8 hours of the culture to determine the collagen-specific nature of incorporated radioactivity.
Human diploid ftbroblasts were obtained from neonatal foreskins collected from the Womens' and Chldrens' Hospital (North Adelaide, Australia). […]
Collagen was purified from the culture medium by successive precipitation with salt solutions at acid and neutral pH. […] The amount of radioactivity in the samples was determined using a Stcinillation counter (Wailac) as an index of the amount of new collagen synthesised. The radioactivity in each replicate well was normalised as a percentage of the average radioactivity present in the control wells from each experiment. […]

Turning to `NCCC(=O)N[C@@H](Cc1c[nH]cn1)C(=O)O` [Carnosine, beta-alanyl-L-histidine], the collagen synthesis result is recorded as “did not stimulate collagen synthesis”.
